Laboratory results published in patent publication US20250040543A1, “Preservative Composition” (ARXADA AG, priority 2021, published 2025).

Tested on: Pseudomonas aeruginosa ATCC 9027
Assay: Preservation efficacy test in sterile distilled water, drop plate
Type: cell-based
Conditions: 7 days
Experimental: In the following example, the following test organisms were used: • Pseudomonas aeruginosa ATCC 9027 • Aspergillus brasiliensis ATCC 16404 [table] Bacteria were harvested and prepared in diluent (sterile distilled water) to obtain a final concentration of 1.0×10^6 to 5.0×10^6 cfu/ml. [table] […] Each sample was inoculated at t=0 with a known concentration of micro-organism. Each inoculated sample was then mixed until a homogenous mixture was obtained. […] The solution was left for 15 minutes. Subsequent dilutions were prepared by serial dilution of 0.1 ml into 0.9 ml of neutralising broth. Bacteria were serially diluted to 10^−4, Fungi were serially diluted to 10^−3. Each serial dilution was thoroughly mixed and 25 μl drops were aliquoted onto the surface of pre-prepared agar plates. Plates were prepared in sextupicate for each sample dilution. The agar plates were allowed to dry, then inverted and incubated under conditions appropriate for the test microorganisms. CFU/ml was calculated taking into account dilution factors. […] The lower and upper limits for drop plating were only employed on the highest and lowest dilution factor plates.

## CCCCOC(=O)CCC(C)=O [Butyl Levulinate, butyl levulinate]
pH 7, Butyl Levulinate 500 ppm, Potassium Sorbate 0 ppm
  Log reduction: <0.03
pH 7, Butyl Levulinate 1000 ppm, Potassium Sorbate 0 ppm
  Log reduction: <0.03
pH 7, Butyl Levulinate 1500 ppm, Potassium Sorbate 0 ppm
  Log reduction: <0.03
pH 7, Butyl Levulinate 1500 ppm, Sodium Benzoate 0 ppm
  Log reduction: <0.38
pH 7, Butyl Levulinate 2000 ppm, Potassium Sorbate 0 ppm
  Log reduction: <0.03
pH 7, Butyl Levulinate 2000 ppm, Sodium Benzoate 0 ppm
  Log reduction: <0.38
pH 7, Butyl Levulinate 2500 ppm, Potassium Sorbate 0 ppm
  Log reduction: <0.03
pH 7, Butyl Levulinate 2500 ppm, Sodium Benzoate 0 ppm
  Log reduction: <0.38
pH 8, Butyl Levulinate 500 ppm, Potassium Sorbate 0 ppm
  Log reduction: <0.33
pH 8, Butyl Levulinate 500 ppm, Sodium Benzoate 0 ppm
  Log reduction: <0.05
pH 8, Butyl Levulinate 1000 ppm, Potassium Sorbate 0 ppm
  Log reduction: <0.33
pH 8, Butyl Levulinate 1000 ppm, Sodium Benzoate 0 ppm
  Log reduction: <0.05
pH 8, Butyl Levulinate 1500 ppm, Potassium Sorbate 0 ppm
  Log reduction: <0.33
pH 8, Butyl Levulinate 1500 ppm, Sodium Benzoate 0 ppm
  Log reduction: <0.05
pH 8, Butyl Levulinate 2000 ppm, Potassium Sorbate 0 ppm
  Log reduction: <0.33
pH 8, Butyl Levulinate 2000 ppm, Sodium Benzoate 0 ppm
  Log reduction: <0.05
pH 8, Butyl Levulinate 2500 ppm, Potassium Sorbate 0 ppm
  Log reduction: <0.33
pH 8, Butyl Levulinate 2500 ppm, Sodium Benzoate 0 ppm
  Log reduction: <0.05
